Literature values as cited in US8231899B2, “Quick release pharmaceutical compositions of drug substances” (Nycomed Danmark ApS, priority 1998, dated 2012).

Columns and labels:
[1] = room temperature

SMILES	solubility in water and 0.1 N HCl [1]	pKa value	solubility at a pH corresponding to 0.1 N HCl [1]
CC(=O)Oc1ccccc1C(=O)O [acetylsalicylic acid]	practically insoluble	–	–
COc1ccc2c(c1)c(CC(=O)O)c(C)n2C(=O)c1ccc(Cl)cc1 [indometacin]	practically insoluble	–	–
CN1C(C(=O)Nc2ccccn2)=C(O)c2sc(Cl)cc2S1(=O)=O [lornoxicam]	–	about 4.7	less than 1 mg 100 ml
